From the CheMixHub viscosity set
Values joined by “and” are separate entries in the source; they are usually repeats but may differ in a detail not shown here. Identical values can stand only once.

Test: xn = mol fraction of the nth substance listed

CC(Cl)(Cl)Cl + COC(C)=O
Conditions | viscosity
298.15 K, 101.33 kPa, x1 = 0.1 | 0.3907 mPa·s
298.15 K, 101.33 kPa, x1 = 0.101 | 0.3907 mPa·s
298.15 K, 101.33 kPa, x1 = 0.198 | 0.4156 mPa·s
298.15 K, 101.33 kPa, x1 = 0.199 | 0.4157 mPa·s
298.15 K, 101.33 kPa, x1 = 0.297 | 0.4438 mPa·s
298.15 K, 101.33 kPa, x1 = 0.3 | 0.445 mPa·s
298.15 K, 101.33 kPa, x1 = 0.398 | 0.4763 mPa·s
298.15 K, 101.33 kPa, x1 = 0.401 | 0.4774 mPa·s
298.15 K, 101.33 kPa, x1 = 0.499 | 0.513 mPa·s
298.15 K, 101.33 kPa, x1 = 0.5 | 0.5132 mPa·s and 0.5114 mPa·s
298.15 K, 101.33 kPa, x1 = 0.599 | 0.5525 mPa·s and 0.5545 mPa·s
298.15 K, 101.33 kPa, x1 = 0.699 | 0.6024 mPa·s
298.15 K, 101.33 kPa, x1 = 0.799 | 0.6574 mPa·s
298.15 K, 101.33 kPa, x1 = 0.901 | 0.7178 mPa·s
303.15 K, 101.3 kPa, x2 = 0.0993 | 0.6661 mPa·s
303.15 K, 101.3 kPa, x2 = 0.2042 | 0.6072 mPa·s
303.15 K, 101.3 kPa, x2 = 0.3008 | 0.5599 mPa·s
303.15 K, 101.3 kPa, x2 = 0.4008 | 0.5182 mPa·s
303.15 K, 101.3 kPa, x2 = 0.5039 | 0.4792 mPa·s
303.15 K, 101.3 kPa, x2 = 0.6038 | 0.4462 mPa·s
303.15 K, 101.3 kPa, x2 = 0.6968 | 0.4186 mPa·s
303.15 K, 101.3 kPa, x2 = 0.7992 | 0.3921 mPa·s
303.15 K, 101.3 kPa, x2 = 0.902 | 0.3668 mPa·s

CC(Cl)(Cl)Cl + CC(C)CCO
298.15 K, 101 kPa
Conditions | viscosity [mPa·s]
x1 = 0.113 | 3.084
x1 = 0.1681 | 2.72
x1 = 0.3013 | 2.01
x1 = 0.3885 | 1.663
x1 = 0.509 | 1.339
x1 = 0.5929 | 1.169
x1 = 0.692 | 1.035
x1 = 0.7926 | 0.913
x1 = 0.8991 | 0.817

O=CO + CCC(C)=O
viscosity [mPa·s], 101 kPa
Conditions | x1 = 0.1013 | x1 = 0.2006 | x1 = 0.3007 | x1 = 0.3962 | x1 = 0.4985 | x1 = 0.602 | x1 = 0.7014 | x1 = 0.7972 | x1 = 0.9011
298.15 K | 0.4271 | 0.4706 | 0.5282 | 0.5841 | 0.6726 | 0.7807 | 0.9125 | 1.078 | 1.309
308.15 K | 0.3863 | 0.4247 | 0.4703 | 0.5186 | 0.5915 | 0.6799 | 0.787 | 0.9165 | 1.095
318.15 K | 0.3479 | 0.3801 | 0.4183 | 0.458 | 0.5195 | 0.5896 | 0.6771 | 0.7866 | 0.9246

CC(Cl)(Cl)Cl + CC#N
303.15 K, 101.32 kPa
Conditions | viscosity [mPa·s]
x2 = 0.1263 | 0.6581
x2 = 0.2051 | 0.6229
x2 = 0.2652 | 0.5971
x2 = 0.3855 | 0.5476
x2 = 0.478 | 0.5114
x2 = 0.6358 | 0.4505
x2 = 0.6802 | 0.4339
x2 = 0.7999 | 0.3906
x2 = 0.8673 | 0.3675
x2 = 0.9074 | 0.3539

CC(Cl)(Cl)Cl + CCCCO
298.15 K, 101 kPa
Conditions | viscosity [mPa·s]
x1 = 0.1022 | 2.187
x1 = 0.2068 | 1.872
x1 = 0.3061 | 1.611
x1 = 0.4067 | 1.372
x1 = 0.5174 | 1.164
x1 = 0.605 | 1.042
x1 = 0.6995 | 0.936
x1 = 0.7924 | 0.855
x1 = 0.9022 | 0.811

O=C(O)CC(O)(CC(=O)O)C(=O)O + C[N+](C)(C)Cc1ccccc1.[Cl-]
Conditions | viscosity [mPa·s]
323.1 K, 101 kPa, x2 = 0.5 | 88750

O=CO + CC(=O)O
viscosity [mPa·s], 101 kPa
Conditions | 298.15 K | 323.15 K
x1 = 0.0603 | 1.119 | 0.7729
x1 = 0.1 | 1.286 | –
x1 = 0.2 | 1.391 | –
x1 = 0.2363 | 1.278 | 0.8526
x1 = 0.3 | 1.463 | –
x1 = 0.4 | 1.506 | –
x1 = 0.4165 | 1.425 | 0.9226
x1 = 0.5 | 1.564 | –
x1 = 0.6 | 1.587 | –
x1 = 0.613 | 1.52 | 0.9694
x1 = 0.7 | 1.607 | –
x1 = 0.7416 | 1.565 | 0.9847
x1 = 0.8 | 1.607 | –
x1 = 0.8864 | 1.565 | 0.9893
x1 = 0.9 | 1.582 | –
x1 = 0.9578 | 1.56 | 0.9775
